Test results as given in publication PMC7797062, “Structural basis for guide RNA trimming by RNase D ribonuclease in Trypanosoma brucei” (Nucleic Acids Research, 2020).

Assays:
TbRND (RND-WT) = molecular target: T1, TbRND (RND-WT) (Trypanosoma brucei, UniProt Q38DE2); assay: X-ray crystal structure (soak of apo crystals); assay type: binding; conditions: 10 mM NMP and 10 mM MnCl2 soak, 10 min
T1 construct: gene Tb09.211.3670; residues 41-390 (N-terminal 40 residues with mitochondrial localization signal removed); codon-optimized gene; E. coli BL21(DE3); His-Sumo tag cut with Ulp1; monomer per asymmetric unit
T1 sequence (Q38DE2 41-390): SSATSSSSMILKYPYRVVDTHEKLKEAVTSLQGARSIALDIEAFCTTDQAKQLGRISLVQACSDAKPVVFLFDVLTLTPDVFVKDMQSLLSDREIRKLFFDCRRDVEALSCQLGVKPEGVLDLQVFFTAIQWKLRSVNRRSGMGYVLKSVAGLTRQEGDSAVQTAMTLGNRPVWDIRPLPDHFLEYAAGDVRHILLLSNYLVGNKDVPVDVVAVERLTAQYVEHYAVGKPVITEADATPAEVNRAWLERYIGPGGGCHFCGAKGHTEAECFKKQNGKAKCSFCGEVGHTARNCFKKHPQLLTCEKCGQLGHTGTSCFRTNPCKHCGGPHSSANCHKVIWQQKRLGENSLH

RND-Exo = molecular target: T2, RND-Exo (Trypanosoma brucei, UniProt Q38DE2 41-296); assay: EMSA; no obvious shift up to 20 uM protein, 0.2 uM RNA; EMSA: 20 mM Tris-HCl pH 8.0, 200 mM NaCl, 2 mM DTT, 0.2 uM FAM-RNA, 1 h on ice; 6% native PAGE in 0.5x TBE at 4 C; conditions: protein: recombinant; tags: His-SUMO removed by Ulp1; label: 5'-FAM; single strand
T2 sequence: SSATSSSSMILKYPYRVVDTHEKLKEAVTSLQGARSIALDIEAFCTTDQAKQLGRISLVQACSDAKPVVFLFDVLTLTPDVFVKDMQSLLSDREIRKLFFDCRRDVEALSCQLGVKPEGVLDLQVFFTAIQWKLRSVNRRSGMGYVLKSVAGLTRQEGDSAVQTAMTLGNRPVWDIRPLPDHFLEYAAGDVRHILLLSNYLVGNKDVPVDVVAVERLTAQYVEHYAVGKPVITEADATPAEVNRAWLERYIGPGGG

TbRND ΔZF_3-4 = TbRND ΔZF_3-4 (Trypanosoma brucei, UniProt Q38DE2 41-341); assay: X-ray crystallography (1.77 A); Ca2+ (10 mM CaCl2), Zn2+; EMSA: 20 mM Tris-HCl pH 8.0, 200 mM NaCl, 2 mM DTT, 0.2 uM FAM-RNA, 1 h on ice; 6% native PAGE in 0.5x TBE at 4 C; conditions: protein: recombinant; tags: His-SUMO removed by Ulp1; single strand

Nc1ncnc2c1ncn2[C@@H]1O[C@H](COP(=O)(O)O)[C@@H](O)[C@H]1O [AMP]
X-ray crystal structure (soak of apo crystals) (TbRND (RND-WT); site: R0 of Exo domain (none in ZF1 groove), b55 says ATP soaked crystals): one AMP was captured at the R0 site in the A-form structure

Nc1ccn([C@@H]2O[C@H](COP(=O)(O)O)[C@@H](O)[C@H]2O)c(=O)n1 [CMP]
X-ray crystal structure (soak of apo crystals) (TbRND (RND-WT); site: ZF1 groove, also R2 site of Exo domain): one CMP nucleotide was bound in ZF1 groove

Nc1nc2c(ncn2[C@@H]2O[C@H](COP(=O)(O)O)[C@@H](O)[C@H]2O)c(=O)[nH]1 [GMP]
X-ray crystal structure (soak of apo crystals) (TbRND (RND-WT); sites: R0 and R2 of Exo domain, ZF1 groove, ZF2 groove (Mn2+-dependent), 2.25 A): we observed two GMP molecules in the G-form structure

O=c1ccn([C@@H]2O[C@H](COP(=O)(O)O)[C@@H](O)[C@H]2O)c(=O)[nH]1 [UMP]
X-ray crystal structure (soak of apo crystals) (TbRND (RND-WT); site: ZF1 groove): one well-defined UMP molecule was captured in the groove of ZF1

AACUUGUUUUUUUU (ssRNA) [RNA1]
binding result (RND-Exo): no binding

UUUUUUUUUUUU (ssRNA) [RNA-12U]
binding result (TbRND ΔZF_3-4): binds
